In ChEMBL document CHEMBL4316583, “In Vitro and in Vivo Antitumor Effects of Plant-Derived Miliusanes and Their Induction of Cellular Senescence” (J Med Chem, 2019):
Activity calls are given as the source filed them. The rule behind the calls is not given here.

Experiments:
A549 = test: Cytotoxicity against human A549 cells assessed as cell growth inhibition after 48 hrs by sulforhodamine B assay; format: functional, cell-based; settings: A549, 48 h
HCT-116 [1] = test: Cytotoxicity against human HCT116 cells assessed as cell growth inhibition after 48 hrs by sulforhodamine B assay; format: functional, cell-based; settings: HCT-116, 48 h
A-375 = test: Cytotoxicity against human A375 cells assessed as cell growth inhibition after 48 hrs by sulforhodamine B assay; format: functional, cell-based; settings: A-375, 48 h
[2] = test system: Panel NCI-60 (60 carcinoma cell lines); test: Growth inhibition human NCI60 cells after 48 hrs by sulforhodamine B assay; format: functional
HCT-116 [3] = test: Cytotoxicity against human HCT116 cells assessed as cell growth inhibition after 24 hrs by sulforhodamine B assay; format: functional, cell-based; settings: HCT-116, 24 h
HCT-116 [4] = test: Antiproliferative activity against human HCT116 cells assessed as inhibition of colony formation at 0.91 to 3.64 uM after 14 days by crystal violet-staining based assay; format: functional, cell-based
Mus musculus [5] = test: Induction of cellular senescence in BALB/c mouse xenografted with human HCT116 cells assessed as up-regulation of p21 protein expression at 20 mg/kg, administered every other day for 3 weeks by immunohistochemical analysis; format: functional, organism-based
HCT-116 [6] = test: Induction of cellular senescence in human HCT116 cells assessed as up-regulation of p21 protein expression at 0.2 to 0.8 ug/ml after 48 hrs by Western blot analysis; format: functional, cell-based
HCT-116 [7] = test: Antiproliferative activity against human HCT116 cells xenografted in BALB/c mouse at 20 mg/kg, administered every other day for 3 weeks by Ki67-staining based assay; format: functional, organism-based
HCT-116 [8] = test: Antitumor activity against human HCT116 cells xenografted in nude BALB/c mouse assessed as tumor growth inhibition at 20 mg/kg, ip administered every other day for 21 days relative to control; format: functional; settings: HCT-116, ip, 504 h, read-out: TGI
[9] = Toxicity in nude BALB/c mouse xenografted with human HCT116 cells assessed as body weight loss at 20 to 40 mg/kg, administered every other day for 21 days; format: organism-based; settings: in vivo, 504 h
HT-29 = test: Growth inhibition human HT-29 cells after 72 hrs by MTS assay; format: functional, cell-based
Mus musculus [10] = test: Effect on p27 protein expression in BALB/c mouse xenografted with human HCT116 cells at 20 mg/kg, administered every other day for 3 weeks by immunohistochemical analysis; format: functional, organism-based
HCT-116 [11] = test: Antitumor activity against human HCT116 cells xenografted in nude BALB/c mouse assessed as tumor growth inhibition at 40 mg/kg, ip administered every other day for 21 days relative to control; format: functional; settings: HCT-116, ip, 504 h, read-out: TGI
Mus musculus [12] = test: Induction of cellular senescence in BALB/c mouse xenografted with human HCT116 cells assessed as up-regulation of p16 protein expression at 20 mg/kg, administered every other day for 3 weeks by immunohistochemical analysis; format: functional, organism-based
HCT-116 [13] = test: Growth inhibition human HCT116 cells after 72 hrs by MTS assay; format: functional, cell-based; settings: HCT-116, 72 h
[14] = Ratio of IC50 for human A2780DDP cells to IC50 for human A2780 cells after 72 hrs by MTS assay; format: functional
[15] = Ratio of IC50 for human HCT116/VP35 cells to IC50 for human HCT116 cells after 72 hrs by MTS assay; format: functional
[16] = Ratio of IC50 for human HCT116/VM46 cells to IC50 for human HCT116 cells after 72 hrs by MTS assay; format: functional
[17] = Ratio of IC50 for human A2780/TAX cells to IC50 for human A2780 cells after 72 hrs by MTS assay; format: functional
A2780 = test: Growth inhibition human A2780 cells after 72 hrs by MTS assay; format: functional, cell-based; settings: A2780, 72 h
HCT-116 [18] = test: Antitumor activity against human HCT116 cells xenografted in nude BALB/c mouse assessed as tumor growth inhibition at 25 mg/kg, ip administered every other day for 21 days relative to control; format: functional; settings: HCT-116, ip, 504 h, read-out: TGI
HCT-116 [19] = test: Induction of cellular senescence in human HCT116 cells at 11.5 uM after 48 hrs by SA-beta-gal-staining based assay; format: functional, cell-based
HCT-116 [20] = test: Induction of apoptosis in human HCT116 cells assessed as viable cells at 11.5 uM after 48 hrs by annexin V/propidium iodide-double staining based flow cytometry (reference value: 88.3%); format: functional; settings: HCT-116, 48 h, read-out: Activity
HCT-116 [21] = test: Induction of apoptosis in human HCT116 cells assessed as early apoptotic cells at 11.5 uM after 48 hrs by annexin V/propidium iodide-double staining based flow cytometry (reference value: 4.8%); format: functional
HCT-116 [22] = test: Induction of apoptosis in human HCT116 cells assessed as late apoptotic cells at 11.5 uM after 48 hrs by annexin V/propidium iodide-double staining based flow cytometry (reference value: 4.6%); format: functional
HCT-116 [23] = test: Induction of apoptosis in human HCT116 cells assessed as necrotic cells at 11.5 uM after 48 hrs by annexin V/propidium iodide-double staining based flow cytometry (reference value: […]); format: functional
HCT-116 [24] = test: Induction of cellular senescence in human HCT116 cells assessed as up-regulation of p21 protein expression at 0.1 to 0.4 ug/ml after 48 hrs by Western blot analysis; format: functional, cell-based
HCT-116 [25] = test: Antiproliferative activity against human HCT116 cells assessed as inhibition of colony formation at 0.58 to 2.31 uM after 14 days by crystal violet-staining based assay; format: functional, cell-based

Compound: CO[C@@H]1CC(=O)[C@@]2(CC(=O)O[C@@H]2/C=C(\C)CCC=C(C)C)C[C@@H]1O
- IC50 (A549): 4.36 µM
- IC50 (HCT-116 [1]): 3.5 µM
- IC50 (A-375): 3.7 µM
- GI50 [2]: 0.03 to 4.79 µM

Compound: CC(=O)O[C@@H]1C=CC(=O)[C@@]2(CC(=O)O[C@@H]2/C=C(\C)CC/C=C(\C)CO)C1
- IC50 (HCT-116 [3]): 6.97 µM
- IC50 (HCT-116 [1]): 5.85 µM

Compound: CC(=O)O[C@H]1C[C@]2(CC(=O)O[C@@H]2/C=C(\C)CCC=C(C)C)C(=O)C[C@H]1Nc1ccccc1
- Activity (HCT-116 [4]): Active
- Activity (Mus musculus [5]): Active
- Activity (HCT-116 [6]): Active
- Activity (HCT-116 [7]): Active
- inhibition in vivo at 20 mg/kg (HCT-116 [8]): 36.4%
- Activity [9]: Non-Toxic
- IC50 (HCT-116 [3]): 2.93 µM
- growth inhibition (GI) (HT-29): Active
- Activity (Mus musculus [10]): inactive
- IC50 (HCT-116 [1]): 2.5 µM
- inhibition in vivo at 40 mg/kg (HCT-116 [11]): 36.4%
- Activity (Mus musculus [12]): Active

Compound: CC(=O)O[C@H]1C[C@]2(CC(=O)O[C@@H]2/C=C(\C)CCC=C(C)C)C(OC(=O)c2ccccc2)=C[C@H]1N(C(=O)c1ccccc1)c1ccccc1
- IC50 (HCT-116 [3]): > 30 µM
- IC50 (HCT-116 [1]): > 30 µM

Compound: CC(=O)O[C@@H]1C=C[C@@H](O)[C@@]2(CC(=O)O[C@@H]2/C=C(\C)CCC=C(C)C)C1
- IC50 (A549): 18.3 µM
- IC50 (HCT-116 [1]): 13.3 µM
- IC50 (A-375): 7.24 µM

Compound: COC(=O)C[C@@]1(C/C=C(\C)CCC=C(C)C)C[C@H](OC(C)=O)C=CC1=O
- IC50 (A549): 24.5 µM
- IC50 (HCT-116 [1]): 13 µM
- IC50 (A-375): 10.4 µM

Compound: CO[C@H]1CC(=O)[C@@]2(CC(=O)O[C@@H]2/C=C(\C)CCC=C(C)C)C[C@@H]1O
- IC50 (A549): 18.4 µM
- IC50 (HCT-116 [1]): 17.2 µM
- IC50 (A-375): 9.86 µM

Compound: CC(=O)O[C@H]1C[C@]2(CC(=O)O[C@@H]2/C=C(\C)CCC=C(C)C)C(=O)C[C@@H]1Nc1ccccc1
- inhibition in vivo at 20 mg/kg (HCT-116 [8]): 31.1%
- Activity [9]: Non-Toxic
- IC50 (HCT-116 [3]): 3.43 µM
- IC50 (HCT-116 [1]): 2.63 µM
- inhibition in vivo at 40 mg/kg (HCT-116 [11]): -8.6%

Compound: CC(=O)O[C@@H]1C=CC(=O)[C@@]2(CC(=O)O[C@@H]2CC(C)CCCC(C)C)C1 (some centres undefined)
- IC50 (HCT-116 [3]): 1.95 µM
- IC50 (HCT-116 [1]): 1.95 µM

Compound: COc1cc([C@@H]2c3cc4c(cc3[C@@H](O[C@@H]3O[C@@H]5CO[C@@H](C)O[C@H]5[C@H](O)[C@H]3O)[C@H]3COC(=O)[C@H]23)OCO4)cc(OC)c1O [ETOPOSIDE]
- IC50 (HCT-116 [13]): 0.41 µM
- Ratio IC50 [14]: 2.5
- Ratio IC50 [15]: 7.4
- Ratio IC50 [16]: 13.5
- Ratio IC50 [17]: 1.7
- IC50 (A2780): 0.07 µM

Compound: O=c1[nH]cc(F)c(=O)[nH]1 [FLUOROURACIL]
- inhibition in vivo at 25 mg/kg (HCT-116 [18]): 32.5%
- Activity (HCT-116 [19]): Active
- viability at 11.5 µM (HCT-116 [20]): 78.3%
- Activity (HCT-116 [21]): 4.7%
- Activity (HCT-116 [22]): 12.6%
- Activity (HCT-116 [23]): 4.4%

Compound: CC(=O)O[C@@H]1CCC(=O)[C@@]2(CC(=O)O[C@@H]2CC(C)CCCC(C)C)C1 (some centres undefined)
- IC50 (HCT-116 [3]): > 30 µM
- IC50 (HCT-116 [1]): > 30 µM

Compound: CC(=O)O[C@@H]1C=CC(=O)[C@@]2(CC(=O)O[C@@H]2/C=C(\C)C/C=C/C(C)(C)O)C1
- IC50 (A549): 20.8 µM
- IC50 (HCT-116 [1]): 4.2 µM
- IC50 (A-375): 4.25 µM

Compound: CC(=O)O[C@@H]1CCC(=O)[C@@]2(CC(=O)O[C@@H]2/C=C(\C)CCC=C(C)C)C1
- IC50 (HCT-116 [3]): > 30 µM
- IC50 (HCT-116 [1]): > 30 µM

Compound: COC(=O)C[C@@]1(C/C=C(\C)CCC=C(C)C)C[C@H](OC(C)=O)C=C[C@H]1O
- IC50 (A549): 18 µM
- IC50 (HCT-116 [1]): 18.3 µM
- IC50 (A-375): 11.6 µM

Compound: CC(=O)O[C@@H]1C=CC(=O)[C@@](C/C=C(\C)CCC=C(C)C)(CC(=O)O)C1
- IC50 (A549): > 57.5 µM
- IC50 (HCT-116 [1]): > 57.5 µM
- IC50 (A-375): > 57.5 µM

Compound: CC(=O)O[C@@H]1C=CC(=O)[C@@]2(CC(=O)O[C@@H]2/C=C(\C)CCC=C(C)C)C1
- IC50 (A549): 6.97 µM
- IC50 (HCT-116 [3]): 3.94 µM
- Activity (HCT-116 [24]): Active
- IC50 (HCT-116 [1]): 1.97 to 2.7 µM
- IC50 (A-375): 1.67 µM
- Activity (HCT-116 [25]): Active
- GI50 [2]: 0.03 to 4.79 µM

Compound: COC(=O)[C@H](O)[C@@]1(C/C=C(\C)CCC=C(C)C)C[C@H](OC(C)=O)C=CC1=O
- IC50 (A549): 7.15 µM
- IC50 (HCT-116 [1]): 4.1 µM
- IC50 (A-375): 3.6 µM

Compound: CC(=O)O[C@@H]1C=CC(=O)[C@@]2(CC(=O)O[C@@H]2/C=C(\C)CCC=C(CO)CO)C1
- IC50 (HCT-116 [3]): 12.9 µM
- IC50 (HCT-116 [1]): 13.7 µM

Compound: CC(=O)O[C@H]1C[C@]2(CC(=O)O[C@@H]2/C=C(\C)CCC=C(C)C)C(=O)C[C@H]1N(C(=O)c1ccccc1)c1ccccc1
- IC50 (HCT-116 [3]): 14 µM
- IC50 (HCT-116 [1]): 10.4 µM

Compound: CC(=O)O[C@@H]1CC[C@@H](OC(C)=O)[C@@]2(CC(=O)O[C@@H]2/C=C(\C)CCC=C(C)C)C1
- IC50 (HCT-116 [3]): > 30 µM
- IC50 (HCT-116 [1]): > 30 µM

Compound: CC(C)=CCC/C(C)=C/[C@H]1OC(=O)C[C@]12C[C@H](O)C=C[C@H]2O
- IC50 (A549): > 65 µM
- IC50 (HCT-116 [1]): > 65 µM
- IC50 (A-375): > 65 µM

Compound: CC(=O)O[C@@H]1CC[C@@H](O)[C@@]2(CC(=O)O[C@@H]2/C=C(\C)CCC=C(C)C)C1
- IC50 (HCT-116 [3]): > 30 µM
- IC50 (HCT-116 [1]): > 30 µM

Compound: CC(=O)O[C@@H]1C=CC(=O)[C@@]2(CC(=O)O[C@@H]2/C=C(\C)CCCC(C)C=O)C1 (some centres undefined)
- IC50 (HCT-116 [3]): 7.18 µM
- IC50 (HCT-116 [1]): 5.49 µM
